Results on 15 compounds are retold here after ChEMBL document CHEMBL1130868, “Synthesis of betulinic acid derivatives with activity against human melanoma” (1998).

≈ marks a conversion by molar mass, not a printed value.

One experiment deals with KB. The experiment in a line: Cytotoxicity against human epidermoid carcinoma of the mouth (KB) cell line. The note with it: read-out: ED50 (the source's name). The experiment is classed as functional.
Another experiment concerns SK-MEL-2. The experiment in a line: Cytotoxicity against cultured human melanoma (MEL-2) cell line. The format is functional. The settings on record: read-out: ED50 (the source's name).

On to `C=C(C)[C@@H]1CC[C@]2(C(=O)OC)CC[C@]3(C)[C@H](CC[C@@H]4[C@@]5(C)CC[C@H](O)C(C)(C)[C@@H]5CC[C@]43C)[C@@H]12` [METHYL BETULINATE], for which the EC50 turned out to be 11.8 µg/mL (≈ 25.1 µM) in the experiment with KB and 8.3 µg/mL (≈ 17.6 µM) with SK-MEL-2.

On to `C=C(C)[C@@H]1CC[C@]2(C(=O)O)CC[C@]3(C)[C@H](CC[C@@H]4[C@@]5(C)CC[C@H](O)C(C)(C)[C@@H]5CC[C@]43C)[C@@H]12` [BETULINIC ACID], for which the figures for the EC50 with KB and in the experiment with SK-MEL-2 were over 20 µg/mL and 1.2 µg/mL (≈ 2.63 µM), respectively.

Take `CC(C)[C@@H]1CC[C@]2(C(=O)O)CC[C@]3(C)[C@H](CC[C@@H]4[C@@]5(C)CCC(=O)C(C)(C)[C@@H]5CC[C@]43C)[C@@H]12` [DIHYDROBETULONIC ACID]: the EC50 was over 20 µg/mL with KB and 0.7 µg/mL (≈ 1.53 µM) with SK-MEL-2.

As for `C=C(C)[C@@H]1CC[C@]2(/C=N/OC)CC[C@]3(C)[C@H](CC[C@@H]4[C@@]5(C)CC/C(=N\OC)C(C)(C)[C@@H]5CC[C@]43C)[C@@H]12`, the EC50 with KB is 20 µg/mL (≈ 40.3 µM); with SK-MEL-2, over 20 µg/mL.

In the case of `C=C(C)[C@@H]1CC[C@]2(C)CC[C@]3(C)[C@H](CC[C@@H]4[C@@]5(C)CC[C@H](OC(=O)c6ccccc6)C(C)(C)[C@@H]5CC[C@]43C)[C@@H]12`, the EC50 with KB and in the experiment with SK-MEL-2 was over 20 µg/mL throughout.

For `CO/N=C1\CC[C@]2(C)[C@H]3CC[C@@H]4[C@H]5[C@H](C(C)C)CC[C@]5(C(=O)O)CC[C@@]4(C)[C@]3(C)CC[C@H]2C1(C)C`, the EC50 in the experiment on KB and in the experiment on SK-MEL-2 was over 20 µg/mL in each case.

Consider `C=C(C)[C@@H]1CC[C@]2(C=O)CC[C@]3(C)[C@H](CC[C@@H]4[C@@]5(C)CCC(=O)C(C)(C)[C@@H]5CC[C@]43C)[C@@H]12` [BETULONAL], for which the values for the EC50 in the experiment on KB and in the experiment on SK-MEL-2 were 12.9 µg/mL (≈ 29.4 µM) and 7.4 µg/mL (≈ 16.9 µM), respectively.

With `C=C(C)[C@@H]1CC[C@]2(C(=O)O)CC[C@]3(C)[C@H](CC[C@@H]4[C@@]5(C)CC/C(=N\OC)C(C)(C)[C@@H]5CC[C@]43C)[C@@H]12`, the EC50 in the experiment with KB amounted to 4.3 µg/mL (≈ 8.89 µM); in the experiment with SK-MEL-2 it was 8.3 µg/mL (≈ 17.2 µM).

Consider `C=C(C)[C@@H]1CC[C@]2(C(=O)O)CC[C@]3(C)[C@H](CC[C@@H]4[C@@]5(C)CCC(=O)C(C)(C)[C@@H]5CC[C@]43C)[C@@H]12` [BETUNOLIC ACID], for which the EC50 in the experiment on KB came out at 2.5 µg/mL (≈ 5.5 µM); with SK-MEL-2, 0.9 µg/mL (≈ 1.98 µM).

For `C=C(C)[C@@H]1CC[C@]2(C(=O)O)CC[C@]3(C)[C@H](CC[C@@H]4[C@@]5(C)CC[C@H](N)C(C)(C)[C@@H]5CC[C@]43C)[C@@H]12`, the EC50 with SK-MEL-2 was determined as 1.3 µg/mL (≈ 2.85 µM).

Consider `C=C(C)[C@@H]1CC[C@]2(/C=N/O)CC[C@]3(C)[C@H](CC[C@@H]4[C@@]5(C)CC/C(=N\O)C(C)(C)[C@@H]5CC[C@]43C)[C@@H]12` [BETULIN-3,28-DIOXIME], for which the EC50 is 3.3 µg/mL (≈ 7.04 µM) in the experiment with KB and 2.2 µg/mL (≈ 4.69 µM) in the experiment on SK-MEL-2.

Consider `CC(C)[C@@H]1CC[C@]2(C(=O)O)CC[C@]3(C)[C@H](CC[C@@H]4[C@@]5(C)CC[C@H](O)C(C)(C)[C@@H]5CC[C@]43C)[C@@H]12` [DIHYDROBETULINIC ACID], for which the EC50 was over 20 µg/mL in the experiment with KB and 5.8 µg/mL (≈ 12.6 µM) with SK-MEL-2.

Regarding `CC(C)[C@@H]1CC[C@]2(C(=O)O)CC[C@]3(C)[C@H](CC[C@@H]4[C@@]5(C)CC/C(=N\O)C(C)(C)[C@@H]5CC[C@]43C)[C@@H]12`, the EC50 with KB was over 20 µg/mL; in the experiment on SK-MEL-2, 2.2 µg/mL (≈ 4.66 µM).

On to `C=C(C)[C@@H]1CC[C@]2(C)CC[C@]3(C)[C@H](CC[C@@H]4[C@@]5(C)CC[C@H](O)C(C)(C)[C@@H]5CC[C@]43C)[C@@H]12` [LUPEOL], for which the results for the EC50 in the experiment with KB and with SK-MEL-2 were over 20 µg/mL and 17.6 µg/mL (≈ 41.2 µM), respectively.

In the case of `C=C(C)[C@@H]1CC[C@]2(CO)CC[C@]3(C)[C@H](CC[C@@H]4[C@@]5(C)CC[C@H](O)C(C)(C)[C@@H]5CC[C@]43C)[C@@H]12` [BETULIN], the EC50 with KB and in the experiment on SK-MEL-2 was over 20 µg/mL each time.
